The subject of this assay is P388 leukemia ip, CD2F1 mice, survival T/C. The assay is described as follows: NCI In Vivo Anticancer Drug Screen. Data for tumor model P388 Leukemia (intraperitoneal) in CD2F1 (CDF1) mice. Particulars: endpoint: median survival time, higher = longer survival. In a few lines:
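Mice carrying the transplanted tumor received test compound or vehicle. Survival was recorded in each group, and the value is the treated-group measurement divided by that of the vehicle-treated control group.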

The mark [1] stands for this setting: dose: 100.0 mg/kg/injection, schedule: Q01DX009 (ip), vehicle: saline.
The mark [2] stands for this setting: dose: 50.0 mg/kg/injection, schedule: Q01DX009 (ip), vehicle: Klucel (hydroxypropylcellulose) (HPC).
Setting [3] is: dose: 100.0 mg/kg/injection, schedule: Q01DX009 (ip), vehicle: Klucel (hydroxypropylcellulose) (HPC).
Where [4] appears, read: dose: 200.0 mg/kg/injection, schedule: Q01DX009 (ip), vehicle: Klucel (hydroxypropylcellulose) (HPC).
[5] abbreviates: dose: 50.0 mg/kg/injection, schedule: Q01DX005 (ip), vehicle: saline with Tween-80.
The mark [6] stands for this setting: dose: 100.0 mg/kg/injection, schedule: Q01DX005 (ip), vehicle: saline with Tween-80.
Setting [7] is: dose: 50.0 mg/kg/injection, schedule: Q01DX009 (ip), vehicle: saline.
Where [8] appears, read: dose: 50.0 mg/kg/injection, schedule: Q01DX009 (ip), vehicle: saline with Tween-80.
Setting [9] is: dose: 100.0 mg/kg/injection, schedule: Q01DX009 (ip), vehicle: saline with Tween-80.
[10] abbreviates: dose: 200.0 mg/kg/injection, schedule: Q01DX009 (ip), vehicle: saline with Tween-80.
[11] abbreviates: dose: 120.0 mg/kg/injection, schedule: Q01DX005 (ip), vehicle: Klucel (hydroxypropylcellulose) (HPC).
Where [12] appears, read: dose: 200.0 mg/kg/injection, schedule: Q01DX005 (ip), vehicle: saline with Tween-80.
Where [13] appears, read: dose: 60.0 mg/kg/injection, schedule: Q01DX005 (ip), vehicle: saline with Tween-80.
The mark [14] stands for this setting: dose: 120.0 mg/kg/injection, schedule: Q01DX005 (ip), vehicle: saline with Tween-80.
Where [15] appears, read: dose: 50.0 mg/kg/injection, schedule: Q01DX005 (ip), vehicle: Klucel (hydroxypropylcellulose) (HPC).
Where [16] appears, read: dose: 100.0 mg/kg/injection, schedule: Q01DX005 (ip), vehicle: Klucel (hydroxypropylcellulose) (HPC).
The mark [17] stands for this setting: dose: 200.0 mg/kg/injection, schedule: Q01DX005 (ip), vehicle: Klucel (hydroxypropylcellulose) (HPC).

Several values for one entry are separate records, joined by “and”; a condition that tells them apart may be missing. Equal values may be shown once. Toxic doses and inconclusive results are not listed.

With `Cc1c(-c2ccccc2)ccnc1/C=N/NC(N)=S`, the T/C by setting is: (dose: 6.25 mg/kg/injection, schedule: Q01DX009 (ip), vehicle: saline) 101 % of control; (dose: 12.5 mg/kg/injection, schedule: Q01DX009 (ip), vehicle: saline) 120 % of control; (dose: 25.0 mg/kg/injection, schedule: Q01DX009 (ip), vehicle: saline) 120 % of control; under setting [1], 103 % of control.
For `COc1ccc(CCNC2(C#N)CCCCC2)cc1OC`, the T/C under setting [2] is 98 % of control and the T/C under setting [3] is 102 % of control.
Take `Nc1nc(N)nc(NCCSS(=O)(=O)O)n1`: the T/C under setting [2] is 94 % of control, the T/C under setting [3] is 94 % of control and the T/C under setting [4] is 91 % of control.
In the case of `CCC#CCN(CCCC)CCCC`, the T/C was 106 % of control under setting [5] and 103 % of control under setting [6].
As to `CC1CCC2(CC1)CCN(CCCN(C)C)CC2`, the T/C was 99 % of control under setting [7] and 103 % of control under setting [1].
With `C[n+]1c(C2(C)CCCO2)sc2ccccc21` (configuration not stated), the T/C (dose: 60.0 mg/kg/injection, schedule: Q01DX005 (ip), vehicle: saline) is 103 % of control.
As to `COc1cccc2[nH]c(-c3ccccn3)nc12`, the T/C reads like this: under setting [8], 95 % of control; under setting [9], 104 % of control; under setting [10], 95 % of control.
As for `COc1ccc(C(=O)C2Cc3c(ccc4ccccc34)OC2=O)cc1` (configuration not stated), the T/C by setting is: under setting [8], 95 % of control; under setting [9], 91 % of control; under setting [10], 88 % of control.
Consider `Clc1ccc(SSc2ccc(Cl)cc2)cc1`, for which the T/C runs as follows: (dose: 12.5 mg/kg/injection, schedule: Q01DX009 (ip), vehicle: gum acacia) 106 % of control; (dose: 25.0 mg/kg/injection, schedule: Q01DX009 (ip), vehicle: gum acacia) 106 % of control; (dose: 50.0 mg/kg/injection, schedule: Q01DX009 (ip), vehicle: gum acacia) 114 % of control.
With `[Cl][Cu][Cl].c1ccc2c(c1)Sc1ccccc1[N+]2=c1ccc2nc3ccccc3sc-2c1`, the T/C is 87 % of control (dose: 60.0 mg/kg/injection, schedule: Q01DX005 (ip), vehicle: Klucel (hydroxypropylcellulose) (HPC)) and 95 % of control under setting [11].
For the compound `Cc1[nH]nc2c1CC(c1ccccc1)NC2=O` (configuration not stated), the T/C runs as follows: under setting [5], 92 % of control; under setting [6], 94 % of control; under setting [12], 94 % of control.
As for `CC(=O)Oc1ccc([N+](=O)[O-])cc1[N+](=O)[O-]`, the T/C was 97 % of control (dose: 6.25 mg/kg/injection, schedule: Q04DX002 (ip), vehicle: Klucel (hydroxypropylcellulose) (HPC)); 103 % of control (dose: 12.5 mg/kg/injection, schedule: Q04DX002 (ip), vehicle: Klucel (hydroxypropylcellulose) (HPC)); 100 % of control (dose: 25.0 mg/kg/injection, schedule: Q04DX002 (ip), vehicle: Klucel (hydroxypropylcellulose) (HPC)).
For `O=C1CCC(N2CCCCC2)CCC1(c1ccccc1)c1ccccc1` (configuration not stated), the T/C reads like this: under setting [5], 106 % of control; under setting [6], 103 % of control; under setting [12], 96 % of control.
`O=C1CSC(=S)N1c1cccc(Cl)c1`: the T/C under setting [2] is 107 % of control and 122 % of control; the T/C under setting [3] was 118 % of control and 121 % of control; the T/C under setting [4] was 111 % of control; the T/C (dose: 400.0 mg/kg/injection, schedule: Q01DX009 (ip), vehicle: Klucel (hydroxypropylcellulose) (HPC)) is 100 % of control.
As to `Nc1ccccc1S(=O)(=O)Nc1c(N)nc(SCC(=O)O)[nH]c1=O`, the T/C is, setting by setting: (dose: 15.0 mg/kg/injection, schedule: Q01DX005 (ip), vehicle: saline with Tween-80) 98 % of control and 101 % of control; (dose: 30.0 mg/kg/injection, schedule: Q01DX005 (ip), vehicle: saline with Tween-80) 100 % of control and 95 % of control; under setting [13], 100 % of control and 95 % of control; under setting [11], 87 % of control and 96 % of control; under setting [14], 99 % of control and 98 % of control; (dose: 240.0 mg/kg/injection, schedule: Q01DX005 (ip), vehicle: Klucel (hydroxypropylcellulose) (HPC)) 98 % of control and 93 % of control.
On to `O=C1CC(c2ccc(Cl)cc2)OC(c2ccc(Cl)cc2)C1` (configuration not stated), for which the T/C by setting is: under setting [7], 104 % of control; under setting [1], 102 % of control; (dose: 200.0 mg/kg/injection, schedule: Q01DX009 (ip), vehicle: saline) 98 % of control.
As for `CN(C)C(=S)SC(=S)Sc1c(Cl)c(Cl)c(Cl)c(Cl)c1Cl`, the T/C reads like this: under setting [8], 99 % of control; under setting [9], 100 % of control; under setting [10], 99 % of control.
On to `CC(C(=O)O)c1cccc2nc(-c3ccccc3)oc12` (configuration not stated), for which the T/C under setting [9] was 112 % of control and the T/C under setting [10] was 102 % of control.
For the compound `CC(=O)N1CCc2ccccc2C1C1c2ccccc2CCN1C(C)=O` (configuration not stated), the T/C runs as follows: (dose: 100.0 mg/kg/injection, schedule: Q04DX003 (ip), vehicle: Klucel (hydroxypropylcellulose) (HPC)) 94 % of control; (dose: 200.0 mg/kg/injection, schedule: Q04DX003 (ip), vehicle: Klucel (hydroxypropylcellulose) (HPC)) 94 % of control; (dose: 400.0 mg/kg/injection, schedule: Q04DX003 (ip), vehicle: Klucel (hydroxypropylcellulose) (HPC)) 92 % of control.
`CC1Cn2c(Cc3ccccc3)nnc2S1` (configuration not stated): the T/C under setting [13] was 104 % of control; the T/C under setting [14] is 93 % of control; the T/C (dose: 240.0 mg/kg/injection, schedule: Q01DX005 (ip), vehicle: saline with Tween-80) was 100 % of control.
On to `O=c1[nH]c(=O)n(C2OC(CF)C(O)C2O)cc1Br` (configuration not stated), for which the T/C was 96 % of control under setting [15], 96 % of control under setting [16] and 98 % of control under setting [17].
Take `[Cl][Sn]([c]1ccccc1)([c]1ccccc1)[c]1ccccc1`: the T/C was 100 % of control (dose: 2.5 mg/kg/injection, schedule: Q01DX009 (ip), vehicle: saline) and 115 % of control (dose: 5.0 mg/kg/injection, schedule: Q01DX009 (ip), vehicle: saline).
In the case of `CC(=O)NC1=C(O)C2C(c3ccccc3)C(C#N)C(=O)N2C1=O` (configuration not stated), the T/C runs as follows: (dose: 100.0 mg/kg/injection, schedule: Q04DX002 (ip), vehicle: saline with Tween-80) 100 % of control; (dose: 200.0 mg/kg/injection, schedule: Q04DX002 (ip), vehicle: saline with Tween-80) 100 % of control; (dose: 400.0 mg/kg/injection, schedule: Q04DX002 (ip), vehicle: saline with Tween-80) 95 % of control.
Regarding `Cn1nc2c(cc1=O)Cc1ccccc1-2`, the T/C runs as follows: under setting [5], 103 % of control; under setting [6], 98 % of control; under setting [12], 101 % of control.
As to `C=Cc1c2ccccc2cc2ccccc12`, the T/C is 109 % of control under setting [15], 106 % of control under setting [16] and 100 % of control under setting [17].

The values are drawn from PubChem BioAssay AID330 (DTP/NCI, 2004).
